Columns and labels:
HASPIN = biological target: T1, HASPIN (Homo sapiens, UniProt Q8TF76); experiment: Kinase inhibition assay (ADP-Glo); type: biochemical; settings: 10 µM ATP
T1 construct: kinase domain, amino acids 470 to 798; made in house; host or cells: bacteria
T1 sequence (Q8TF76 470-798): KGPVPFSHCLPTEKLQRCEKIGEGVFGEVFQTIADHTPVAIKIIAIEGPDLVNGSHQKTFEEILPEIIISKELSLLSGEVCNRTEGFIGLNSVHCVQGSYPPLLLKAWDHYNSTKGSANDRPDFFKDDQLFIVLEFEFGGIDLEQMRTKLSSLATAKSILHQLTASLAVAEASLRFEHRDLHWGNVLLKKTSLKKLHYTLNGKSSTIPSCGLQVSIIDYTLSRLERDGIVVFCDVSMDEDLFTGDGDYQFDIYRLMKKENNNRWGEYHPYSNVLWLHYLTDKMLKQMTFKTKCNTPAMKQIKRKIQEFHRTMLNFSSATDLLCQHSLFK
Experimental: HsHASPIN (human, kinase domain, amino acids 470 to 798, recombinant, expressed in bacteria) was assayed in buffer A with 0.007 µg/µL of Histone H3 (1-21) peptide ([…]) as substrate;

CDK2/CyclinA = CDK2/CyclinA (Homo sapiens, UniProt P24941); experiment: Kinase inhibition assay (ADP-Glo); type: biochemical; settings: 10 µM ATP
Experimental: HsCDK2/CyclinA (human, cyclin-dependent kinase-2, kindly provided by Dr. A. Echalier-Glazer, Leicester, UK) was assayed in buffer A with 0.8 µg/µL of histone H1 as substrate.

K562 = experiment: MTT cytotoxicity, 72 h; type: cell-based, human; settings: Homo sapiens, K562, 72 h of incubation
Experimental: (§1) The cytotoxicity assessment was performed against three human cancer cell lines in suspension (K562, HL-60 and MOLT-4) and four adhered (HEp-2, NCI-H292, HT-29 and MCF-7).
(§2) The cells were obtained from the Cell Bank of Rio de Janeiro and maintained in the Laboratory of Cell Culture of the Department of Antibiotics of the Federal University of Pernambuco. The lines K562 (myeloblastic leukaemia), HL-60 (promyelocytic leukemia) and MOLT-4 (lymphoblastic leukemia) were cultured in RPMI 1640 medium and the lines HEp-2 (larynx carcinoma), NCI-H292 (lung carcinoma), HT-29 (colon adenocarcinoma) and MCF-7 (breast adenocarcinoma) were cultured in DMEM medium, supplemented with 10% fetal bovine serum, 2 mM glutamine, 100 U/mL penicillin and 100 μg/mL streptomycin (Gibco™ Life Technologies), at 37 °C and 5% CO2.
(§3) The evaluation of the cytotoxicity of the compounds was performed by the method of 3-(4,5-dimethyl-2-thiazolyl)-2,5-diphenyl-2H-tetrazolium bromide (MTT) (Sigma Aldrich Co., St. Louis, MO, USA). To perform the assay the cells were seeded in 96-well plates at the following concentrations: HL-60 and K562 (0.3 × 10^6 cells/mL); MOLT-4 and PBMC (10^6 cells/mL); NCI-H292, HT-29, HEp-2 e MCF-7 (10^5 cells/mL). Briefly, the compounds previously dissolved in DMSO (dimethylsulfoxide, Vetec, São Paulo, Brazil), were diluted in medium and added to each well at the desired concentrations. For the calculation of the concentration that inhibits 50% of cell growth (IC50) the compounds were serially diluted to obtain the final concentrations between 0.19–25 μg/mL. Doxorubicin was used as the standard in the concentration range between (0.078–10 μg/mL). After 72 h of contact of the cells with the compounds, it was added to each well 25 μL of MTT solution (5 mg/mL). Plates were left for another 3 h in incubator at 37 °C and at the end of that period the supernatant was aspirated. To perform the reading, 100 μL of DMSO was added in each well for the dissolution of the formazan crystals. The amount of formazan was measured by reading the plate at 560 nm absorbance. The IC50 was calculated from the nonlinear regression in the Prisma 7.0 software (GraphPad, San Diego, CA, USA). Each sample was tested in triplicate in three independent experiments.

MCF-7 = experiment: MTT cytotoxicity, 72 h; type: cell-based, human; settings: Homo sapiens, MCF7, 72 h of incubation
Experimental: as §1, §2, §3

MOLT-4 = experiment: MTT cytotoxicity, 72 h; type: cell-based, human; settings: Homo sapiens, MOLT-4, 72 h of incubation
Experimental: as §1, §2, §3

NCI-H292 = experiment: MTT cytotoxicity, 72 h; type: cell-based, human; settings: Homo sapiens, NCI-H292, 72 h of incubation
Experimental: as §1, §2, §3

HL-60 = experiment: MTT cytotoxicity, 72 h; type: cell-based, human; settings: for selectivity index (SI = IC50 PBMC/ IC50 cancer cells): HL-60 versus PBMC; for IC50: Homo sapiens, HL-60, MTT, 72 h of incubation
Experimental: as §1, §2, §3

HEp-2 = experiment: MTT cytotoxicity, 72 h; type: cell-based, human; settings: Homo sapiens, HEp-2, 72 h of incubation
Experimental: as §1, §2, §3

HT-29 = experiment: MTT cytotoxicity, 72 h; type: cell-based, human; settings: Homo sapiens, HT-29, 72 h of incubation
Experimental: as §1, §2, §3

CLK1 = biological target: T2, CLK1 (Mus musculus, UniProt P22518); experiment: Kinase inhibition assay (ADP-Glo); type: biochemical; settings: 10 µM ATP
T2 construct: made in house; host or cells: bacteria
Experimental: MmCLK1 (from Mus musculus, recombinant, expressed in bacteria) was assayed in buffer A with 0.027μg/µL of the following peptide: GRSRSRSRSRSR as substrate.

DYRK1A = biological target: T3, DYRK1A (Rattus norvegicus, UniProt Q63470); experiment: Kinase inhibition assay (ADP-Glo); type: biochemical; settings: 10 µM ATP
T3 construct: amino acids 1 to 499 including the kinase domain; made in house; host or cells: bacteria
Experimental: RnDYRK1A (Rattus norvegicus, amino acids 1 to 499 including the kinase domain, recombinant, expressed in bacteria, DNA vector kindly provided by Dr. W. Becker, Aachen, Germany) was assayed in buffer A with 0.033 μg/µL of the following peptide: KKISGRLSPIMTEQ as substrate.

CDK9/CyclinT = CDK9/CyclinT (Homo sapiens, UniProt P50750); experiment: Kinase inhibition assay (ADP-Glo)
CK1δ/ε = experiment: Kinase inhibition assay (ADP-Glo); type: biochemical, Sus scrofa domesticus; settings: 10 µM ATP
Experimental: SscCK1δ/ε (Sus scrofa domesticus, casein kinase 1δ/ε, affinity purified from porcine brain) was assayed in buffer A, with 0.022 μg/μL of the following peptide: RRKHAAIGSpAYSITA (“Sp” stands for phosphorylated serine) as CK1-specific substrate.

GSK3 α/β = experiment: Kinase inhibition assay (ADP-Glo); type: biochemical, Sus scrofa domesticus; settings: 10 µM ATP
Experimental: SscGSK-3α/β (Sus scrofa domesticus, glycogen synthase kinase-3, affinity purified from porcine brain) was assayed in buffer A with 0.010 µg/µL of GS-1 peptide, a GSK-3-selective substrate ([…]pEDEEE, “Sp” stands for phosphorylated serine).

T2 sequence (P22518 whole entry): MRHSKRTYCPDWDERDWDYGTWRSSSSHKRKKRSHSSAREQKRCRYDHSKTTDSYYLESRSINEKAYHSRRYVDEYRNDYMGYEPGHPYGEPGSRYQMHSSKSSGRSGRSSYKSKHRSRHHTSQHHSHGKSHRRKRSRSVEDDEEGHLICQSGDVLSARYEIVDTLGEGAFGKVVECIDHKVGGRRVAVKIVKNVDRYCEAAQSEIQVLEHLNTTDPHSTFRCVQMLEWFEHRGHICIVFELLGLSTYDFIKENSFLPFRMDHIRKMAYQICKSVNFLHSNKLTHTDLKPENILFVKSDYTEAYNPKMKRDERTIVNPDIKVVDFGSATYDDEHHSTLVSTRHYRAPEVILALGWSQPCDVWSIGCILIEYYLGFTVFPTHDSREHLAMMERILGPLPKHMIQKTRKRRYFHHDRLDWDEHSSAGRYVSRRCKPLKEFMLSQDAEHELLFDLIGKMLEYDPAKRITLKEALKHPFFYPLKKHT
Sequence of CDK9/CyclinT (P50750 whole entry): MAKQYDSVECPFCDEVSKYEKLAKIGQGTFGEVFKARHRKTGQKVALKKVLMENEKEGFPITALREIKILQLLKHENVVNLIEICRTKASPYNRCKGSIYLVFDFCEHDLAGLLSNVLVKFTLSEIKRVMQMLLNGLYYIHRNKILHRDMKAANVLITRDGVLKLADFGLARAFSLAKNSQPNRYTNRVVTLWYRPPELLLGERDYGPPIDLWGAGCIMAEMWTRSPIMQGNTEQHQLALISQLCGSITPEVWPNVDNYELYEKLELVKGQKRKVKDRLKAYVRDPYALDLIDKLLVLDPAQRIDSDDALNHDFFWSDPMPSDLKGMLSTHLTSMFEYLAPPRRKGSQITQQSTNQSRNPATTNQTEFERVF
Sequence of CDK9/CyclinT (O60563 whole entry partner): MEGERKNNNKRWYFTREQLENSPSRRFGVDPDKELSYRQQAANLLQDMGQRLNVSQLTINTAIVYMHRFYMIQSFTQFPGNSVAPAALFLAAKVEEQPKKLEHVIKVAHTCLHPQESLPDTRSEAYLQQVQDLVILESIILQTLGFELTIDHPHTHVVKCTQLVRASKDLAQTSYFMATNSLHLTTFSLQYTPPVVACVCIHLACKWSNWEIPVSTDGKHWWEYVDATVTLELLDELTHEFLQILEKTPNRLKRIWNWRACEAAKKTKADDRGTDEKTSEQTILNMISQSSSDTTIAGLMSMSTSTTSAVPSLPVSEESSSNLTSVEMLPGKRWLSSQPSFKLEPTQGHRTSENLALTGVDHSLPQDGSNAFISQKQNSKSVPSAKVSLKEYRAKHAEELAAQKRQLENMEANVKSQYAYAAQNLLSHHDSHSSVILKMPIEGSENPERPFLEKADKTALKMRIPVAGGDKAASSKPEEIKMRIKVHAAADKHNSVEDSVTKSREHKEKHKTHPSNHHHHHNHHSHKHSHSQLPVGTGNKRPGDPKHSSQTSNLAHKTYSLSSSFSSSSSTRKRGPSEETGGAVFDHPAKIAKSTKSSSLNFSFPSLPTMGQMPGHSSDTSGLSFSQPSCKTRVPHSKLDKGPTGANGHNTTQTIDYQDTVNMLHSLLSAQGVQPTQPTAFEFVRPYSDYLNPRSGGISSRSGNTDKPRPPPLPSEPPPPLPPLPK

Row | IC50 (HASPIN) [µM] | IC50 (CDK2/CyclinA) [µM] | IC50 (CLK1) [µM] | IC50 (DYRK1A) [µM] | IC50 (CDK9/CyclinT) [µM] | IC50 (CK1δ/ε) [µM] | IC50 (GSK3 α/β) [µM] | SMILES | IC50 (K562) [µM] | IC50 (MCF-7) [µM] | IC50 (MOLT-4) [µM] | IC50 (NCI-H292) [µM] | selectivity index (SI = IC50 PBMC/ IC50 cancer cells) (HL-60) | IC50 (HL-60) [µM] | IC50 (HEp-2) [µM] | IC50 (HT-29) [µM]
1 | > 10 | 0.53 | 0.29 | 0.073 | 0.86 | > 10 | > 10 | NC(=O)N/N=C/c1c(O)ccc2ccccc12 [Compound 3c, 2-Hydroxynaphthaldehyde Semicarbazone] | 52.3 ± 1.15 | 34 ± 1.06 | 41 ± 0.7 | 56.3 ± 3.05 | 6.2 | 13.1 ± 0.62 | 37.1 ± 1.5 | 40.6 ± 1.02
2 | > 10 | > 10 | > 10 | > 10 | > 10 | > 10 | > 10 | Cc1ccc(C=NNC(N)=O)cc1 [Compound 3g, 4-Methylbenzaldehyde Semicarbazone] | 33.3 ± 0.71 | > 100 | 56.4 ± 0.97 | > 100 | – | 48.5 ± 1.63 | 24.3 ± 0.97 | > 100
3 | > 10 | > 10 | > 10 | > 10 | > 10 | 0.76 | > 10 | CCCCN(N=Cc1ccc([N+](=O)[O-])o1)C(N)=O [Compound 4a, 5-Nitro-2-(N^2-n-butyl)furfuraldehyde Semicarbazone] | 24.2 ± 1.15 | 33.6 ± 0.71 | 19.5 ± 0.62 | 37.9 ± 1.5 | 4.5 | 11.4 ± 0.27 | 34.4 ± 0.88 | 36.3 ± 0.97

From PMC6958387, “Biological Evaluation of Arylsemicarbazone Derivatives as Potential Anticancer Agents” (Pharmaceuticals, 2019)
